Assay results: patent US10294202B2, “Pyrrolidinones as herbicides” (FMC Corporation, priority 2013, dated 2019)

Key:
redstem = test: Test F flood (paddy) test; assay type: in vivo, Ammannia coccinea; settings: 21 d, scale 0-100
From the text: Three plastic pots (ca. 16-cm diameter) per rate were partially filled with sterilized Tama silt loam soil comprising a 35:50:15 ratio of sand, silt and clay and 2.6% organic matter. Separate plantings for each of the three pots were as follows. Seeds from the U.S. of monochoria (Monochoria vaginalis), sedge, umbrella (small-flower umbrella sedge, Cyperus difformis), bulrush, […] bulrush, Scirpus juncoides), and […] (purple […] coccinea), were planted into one 16-cm pot for each rate. Seeds from the U.S. of flatsedge, rice (rice flatsedge, Cyperus iria), sprangletop, Brdd. (bearded sprangletop, Leptochloa fascicularis), one stand of 9 or 10 water seeded rice seedlings (Rice, W.S. Jap, Oryza sativa cv. 'Japonica-[…]' or Rice, W.S. Ind, 'Indica'), and two stands of 3 or 4 seedlings of rice, transplanted (transplanted rice, Oryza sativa cv. 'Japonica-[…]') were planted into one 16-cm pot for each rate. Seeds from the U.S. of barnyardgrass (Echinochloa crus-galli), […] (common […], Alisma plantago-aquatica), and watergrass, late (late watergrass, Echinochloa oryzicola) were planted into one 16-cm pot for each rate. Plantings were sequential so that crop and weed species were at the 2.0 to 2.5-leaf stage at time of treatment. Potted plants were grown in a greenhouse with day/night temperature settings of 30/27° C., and supplemental balanced lighting was provided to maintain a 16-h photoperiod. Test pots were maintained in the greenhouse until test completion. At time of treatment, test pots were flooded to 3 cm above the soil surface, treated by application of test compounds directly to the paddy water, and then maintained at that water depth for the duration of the test. Effects of treatments on rice and weeds were visually evaluated by comparison to untreated controls after 21 d. Plant response ratings, summarized in Table F, are based on a scale of 0 to 100 where 0 is no effect and 100 is complete control. A dash (-) response means no test result.

barley (winter barley) = test: Test C postemergence herbicide test; assay type: in vivo, Hordeum vulgare
Procedure, shortened: (§1)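 Greenhouse pot plants at 2 to 18 cm height (1- to 4-leaf stage) received a postemergence application of formulated test chemical. Visual ratings against untreated controls were made after 13 to 15 days, on a 0 (no effect) to 100 (complete control) scale.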

windgrass = test: Test C postemergence herbicide test; assay type: in vivo, Apera spica-venti
From the text: At the same time, plants selected from these crop and weed species and also barley (winter barley, Hordeum vulgare), […]), chickweed (common chickweed, Stellaria media), deadnettle (henbit deadnettle, Lamium amplexicaule), and canarygrass (littleseed canarygrass, Phalaris minor) were planted in pots containing Redi-Earth® planting medium (Scotts Company, 14111 Scottslawn Road, Marysville, Ohio 43041) comprising spaghnum peat moss, vermiculite, wetting agent and starter nutrients and treated with postemergence applications of test chemicals formulated in the same manner. Plants ranged in height from 2 to 18 cm (1- to 4-leaf stage) for postemergence treatments. Treated plants and controls were maintained in a greenhouse for 13 to 15 days, after which time all species were compared to controls and visually evaluated. Plant response ratings, summarized in Table C, are based on a scale of 0 to 100 where 0 is no effect and 100 is complete control. A dash (-) response means no test result.

canarygrass = test: Test C postemergence herbicide test; assay type: in vivo, Phalaris minor
Procedure, shortened: as §1

barley, spring = test: Test D pre-/postemergence herbicide test; assay type: in vivo, Hordeum vulgare; settings: for Plant response rating: Barley, Spring, scale 0 to 100; for Plant response rating, Barley, Spring: scale 0 to 100 (0 no effect, 100 complete control)
Procedure, shortened: (§2)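 Test chemicals in a non-phytotoxic solvent with surfactant were applied preemergence to seeds in silt loam soil and postemergence to plants at 2-18 cm (1- to 4-leaf stage) in peat-based medium. After 7 to 21 days in a controlled environment, injury was rated visually versus controls on a 0-100 scale (100 = complete control).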

barley, winter = test: Test D pre-/postemergence herbicide test; assay type: in vivo, Hordeum vulgare; settings: for Plant response rating: Barley, Winter, scale 0 to 100; for Plant response rating, Barley, Winter: scale 0 to 100 (0 no effect, 100 complete control)
Procedure, shortened: as §2

[1] = 31 g ai/ha, scale 0 (no effect) to 100 (complete control)
[2] = 62 g ai/ha, scale 0 to 100 (0 no effect, 100 complete control)
[3] = 125 g ai/ha, scale 0 to 100 (0 no effect, 100 complete control)
[4] = 250 g ai/ha, scale 0 to 100 (0 no effect, 100 complete control)

Row | SMILES | Plant response rating, Redstem (redstem; 125 g ai/ha) | Plant response rating, Redstem (redstem; 250 g ai/ha) | Plant response rating, Redstem (redstem; 500 g ai/ha) | Plant response rating, Redstem (redstem; 1000 g ai/ha) | Plant response rating, Redstem (redstem; 2000 g ai/ha) | Plant response rating, Barley (barley (winter barley); [1]) | Plant response rating, Barley (barley (winter barley); [2]) | Plant response rating, Barley (barley (winter barley); [3]) | Plant response rating, Barley (barley (winter barley); [4]) | Plant response rating, Windgrass (windgrass; [1]) | Plant response rating, Windgrass (windgrass; [2]) | Plant response rating, Windgrass (windgrass; [3]) | Plant response rating, Windgrass (windgrass; [4]) | Plant response rating, Canarygrass (canarygrass; [1]) | Plant response rating, Canarygrass (canarygrass; [2]) | Plant response rating, Canarygrass (canarygrass; [3]) | Plant response rating, Canarygrass (canarygrass; [4]) | Plant response rating (barley, spring; Postemergence, 16 g ai/ha) | Plant response rating (barley, spring; Postemergence, 31 g ai/ha) | Plant response rating (barley, spring; Postemergence, 62 g ai/ha) | further results
1 | O=C1NCCC1C(=O)N(c1ccc(F)c(F)c1)c1ccccc1F (centres unmarked) [Compound 5, N-(3,4-difluorophenyl)-N-(2-fluorophenyl)-2-oxo-3-pyrrolidinecarboxamide] | 0 | 0 | 40 | 45 | 45 | – | – | – | – | – | – | – | – | – | – | – | – | – | – | – | –
2 | O=C1NCC(c2ccc(F)c(F)c2)C1C(=O)Nc1cccc(F)c1F (centres unmarked) [Compound 17, N-(2,3-difluorophenyl)-4-(3,4-difluorophenyl)-2-oxo-3-pyrrolidinecarboxamide] | 0 | 0 | 0 | 35 | 40 | 0 | 0 | 0 | 0 | 0 | 0 | 0 | 0 | 0 | 0 | 0 | 0 | 0 | 0 | 0 | Plant response rating (barley, spring; Postemergence, 125 g ai/ha): 0; Plant response rating (barley, spring; Postemergence, 250 g ai/ha): 0; Plant response rating (barley, winter; Postemergence, 16 g ai/ha): 0; Plant response rating (barley, winter; Postemergence, 31 g ai/ha): 0; Plant response rating (barley, winter; Postemergence, 62 g ai/ha): 0; Plant response rating (barley, winter; Postemergence, 125 g ai/ha): 0; Plant response rating (barley, winter; Postemergence, 250 g ai/ha): 0
3 | O=C1NCC(c2ccc(Cl)c(F)c2)C1C(=O)Nc1cccc(F)c1F (centres unmarked) [Compound 52] | – | – | – | – | – | 0 | 0 | 0 | 15 | 0 | 0 | 20 | 20 | 0 | 0 | 0 | 0 | 0 | 0 | 0 | Plant response rating (barley, spring; Postemergence, 125 g ai/ha): 0; Plant response rating (barley, spring; Postemergence, 250 g ai/ha): 0; Plant response rating, Barley, Spring (barley, spring; Preemergence, 62 g ai/ha): 0; Plant response rating, Barley, Spring (barley, spring; Preemergence, 16 g ai/ha): 0; Plant response rating, Barley, Spring (barley, spring; Preemergence, 31 g ai/ha): 0; Plant response rating (barley, spring; Preemergence, 125 g ai/ha): 0; Plant response rating (barley, spring; Preemergence, 250 g ai/ha): 5; Plant response rating (barley, winter; Postemergence, 16 g ai/ha): 0; Plant response rating (barley, winter; Postemergence, 31 g ai/ha): 0; Plant response rating (barley, winter; Postemergence, 62 g ai/ha): 0; Plant response rating (barley, winter; Postemergence, 125 g ai/ha): 0; Plant response rating (barley, winter; Postemergence, 250 g ai/ha): 0; Plant response rating, Barley, Winter (barley, winter; Preemergence, 62 g ai/ha): 0; Plant response rating, Barley, Winter (barley, winter; Preemergence, 16 g ai/ha): 0; Plant response rating, Barley, Winter (barley, winter; Preemergence, 31 g ai/ha): 0; Plant response rating (barley, winter; Preemergence, 125 g ai/ha): 0; Plant response rating (barley, winter; Preemergence, 250 g ai/ha): 25
4 | CN1CC(c2ccc(F)c(F)c2)C(C(=O)Nc2cccc(F)c2F)C1=O (centres unmarked) [Compound 303] | 0 | 0 | 30 | – | – | – | – | – | – | – | – | – | – | – | – | – | – | – | – | – | Plant response rating, Redstem (redstem; 62 g ai/ha): 0
